Results as given in PMC7725443 (Advanced healthcare materials, 2020).

Test system: OVSAHO cells
Assay: Cell viability of OVSAHO cells
Type: cell-based, human
Settings: 50 nM and 100 nM, 24 h

SMILES: CC(C)C[C@H](NC(=O)[C@H](Cc1ccccc1)NC(=O)c1cnccn1)B(O)O [BTZ, bortezomib]
- cell viability of OVSAHO cells treated with solely BTZ: cell compatible
